Reference: US10695348B2, “Sulfonyl pyridyl TRP inhibitors” (Genentech, Inc., priority 2017, dated 2020)

Columns and labels:
[1] = Human liver microsome clearance / stability; format: in vitro ADME; conditions: for HLM (human liver microsome stability): human liver microsomes, Table 5; for HLM clearance, in words: as compared to compounds 1 and 2
Description: Human liver microsome clearance (mL/min/kg) may be measured according to the method described by Ackley et al, “Metabolic Stability Assessed by Liver Microsomes and Hepatocytes”, in “Optimization in Drug Discovery” in the “Methods in Pharmacology and Toxicology” series (ISSN 1557-2153), pp. 151-162 (Yan, Ed., Print ISBN 978-1-58829-332-9, Springer (2004), as well as by using commercially available assay kits by Cerep, Cyprotex, Bd Bioscience and others.
Human liver microsome HLM stability may be measured as using the procedure of Ackley et al. as described above.

human TRPA1 [2] = target: T1, human TRPA1 (Homo sapiens, UniProt O75762); test: Human Ca2+ MAX IC50 calcium assay; format: cell-based; conditions: for IC50: Table 5, read-out: H Ca2+ MAX (human CA2+ MAX IC50); for affinity on human TRPA1, in words: as compared to compounds 1 and 2
T1 construct: expressed in transfected cells; host or cells: CHO cells
T1 sequence (O75762 whole entry): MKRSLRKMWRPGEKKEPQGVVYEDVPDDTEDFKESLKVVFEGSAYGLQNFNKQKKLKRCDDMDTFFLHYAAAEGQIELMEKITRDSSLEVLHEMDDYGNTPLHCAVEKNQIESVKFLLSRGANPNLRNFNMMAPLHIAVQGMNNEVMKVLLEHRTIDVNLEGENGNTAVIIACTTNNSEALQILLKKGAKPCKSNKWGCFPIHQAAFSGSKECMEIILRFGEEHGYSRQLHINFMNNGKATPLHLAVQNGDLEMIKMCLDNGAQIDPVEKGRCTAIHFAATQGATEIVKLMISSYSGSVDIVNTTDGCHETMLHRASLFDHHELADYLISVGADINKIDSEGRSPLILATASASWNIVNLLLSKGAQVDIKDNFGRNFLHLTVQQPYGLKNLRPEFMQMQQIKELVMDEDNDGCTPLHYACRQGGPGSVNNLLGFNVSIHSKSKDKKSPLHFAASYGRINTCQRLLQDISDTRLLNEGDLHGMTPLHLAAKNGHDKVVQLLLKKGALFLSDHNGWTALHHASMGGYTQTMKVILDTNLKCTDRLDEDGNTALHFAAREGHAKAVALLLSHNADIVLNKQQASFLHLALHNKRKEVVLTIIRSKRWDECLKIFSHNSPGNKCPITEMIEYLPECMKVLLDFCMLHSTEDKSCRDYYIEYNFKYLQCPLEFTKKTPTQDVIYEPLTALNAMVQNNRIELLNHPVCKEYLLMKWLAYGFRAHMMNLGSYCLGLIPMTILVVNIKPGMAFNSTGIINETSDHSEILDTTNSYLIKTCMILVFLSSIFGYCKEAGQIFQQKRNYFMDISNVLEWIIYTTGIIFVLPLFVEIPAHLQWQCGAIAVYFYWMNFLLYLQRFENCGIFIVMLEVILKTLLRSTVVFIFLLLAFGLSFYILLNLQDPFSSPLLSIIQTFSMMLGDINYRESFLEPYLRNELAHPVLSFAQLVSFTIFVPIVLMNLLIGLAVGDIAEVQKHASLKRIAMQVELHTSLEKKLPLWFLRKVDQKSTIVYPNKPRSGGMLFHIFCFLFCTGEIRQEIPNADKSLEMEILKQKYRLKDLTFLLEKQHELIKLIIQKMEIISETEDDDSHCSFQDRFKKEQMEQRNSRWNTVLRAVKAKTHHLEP
Description: Human Ca2+ MAX IC50 may be measured using one of the commercially available calcium assay kits provided by Molecular Devices, Abcam, Bio-Rad, Biovision, Enzo Lifesciences, Abnova, Sigma-Aldrich, or others.

human TRPA1 [3] = target: T1, human TRPA1; test: FLIPR Tetra calcium influx assay, CHO cells expressing TRPA1, cinnamaldehyde agonist (hTRPA1 CHO Ca2+ AUC EVO); format: cell-based; conditions: CHO cells expressing human TRPA1; 75 uM cinnamaldehyde; Hill coefficient fixed to 1.5; read-out: hTRPA1 IC50 (hTRPA1 CHO Ca2+ AUC EVO (IC50))
Procedure: The IC50 ([…]) of compounds on the human and rat TRPA1 channels were determined using a FLIPR Tetra instrument. CHO cells expressing TRPA1 were plated into 384-well plates, incubated overnight at 37° C., and loaded with BD calcium indicator dye for 1 hr at 37° C. followed by 15 minutes at room temperature. The assay buffer was Hank's Balanced Salt Solution (HBSS) containing 20 mM HEPES (pH readjusted to 7.4) along with 0.02% BSA.
Following dye load and plate cool down, compounds were added to the cells using FLIPR Tetra. Plates were then incubated with compounds for 20 minutes at room temperature prior to adding agonist. Following this incubation, about an EC80 concentration of cinnamaldehyde (75 uM for human TRPA1 and 45 uM for rat TRPA1) was added to active the channels and block of cinnamaldehyde induced calcium influx was measured.
The IC50 results were fit with a standard Hill function, keeping the Hill coefficient (n) fixed to 1.5. Fixing the Hill coefficient will generally reduce variability of the IC50 determination. The IC50 results were individually examined to make sure the MIN and MAX points were set correctly prior to validation of the results.

C[C@H]1[C@H](F)C[C@@H](C(=O)NCc2cc(-c3cnc(C(F)(F)F)nc3)ncc2C(F)(F)F)N1S(=O)(=O)c1ccc(F)cn1 (single isomer, unassigned) [Compound 1]
HLM (human liver microsome stability) [1]: 4.1 mL/min/kg
IC50 (human TRPA1 [2]): 8 nM

C[C@H]1[C@H](F)C[C@@H](C(=O)NCc2cc(-c3cnc(C(F)(F)F)nc3)ncc2C(F)(F)F)N1S(=O)(=O)c1ccc(Cl)cn1 [Compound 2]
HLM (human liver microsome stability) [1]: 6.1 mL/min/kg
IC50 (human TRPA1 [2]): 6 nM

C[C@H]1[C@H](F)C[C@@H](C(=O)NCc2cc(-c3cnc(C(F)(F)F)nc3)ncc2C(F)(F)F)N1S(=O)(=O)c1cncc(F)c1 [Compound 3]
HLM clearance, in words [1]: relatively high HLM clearance
HLM (human liver microsome stability) [1]: 19 mL/min/kg
IC50 (human TRPA1 [2]): 21 nM

C[C@H]1[C@H](F)C[C@@H](C(=O)NCc2cc(-c3cnc(C(F)(F)F)nc3)ncc2C(F)(F)F)N1S(=O)(=O)c1ccc(C#N)nc1 [Compound 4]
HLM (human liver microsome stability) [1]: 3.7 mL/min/kg
IC50 (human TRPA1 [2]): 41 nM
affinity on human TRPA1, in words (human TRPA1 [2]): low affinity

C[C@H]1[C@H](F)C[C@@H](C(=O)NCc2cc(-c3cnc(C(F)(F)F)nc3)ncc2C(F)(F)F)N1S(=O)(=O)c1ccncc1 [Compound 6]
HLM clearance, in words [1]: relatively high HLM clearance
HLM (human liver microsome stability) [1]: 19 mL/min/kg
IC50 (human TRPA1 [2]): 638 nM
affinity on human TRPA1, in words (human TRPA1 [2]): low affinity

C[C@H]1[C@H](F)C[C@@H](C(=O)NCc2cc(-c3cnc(C(F)(F)F)nc3)ncc2C(F)(F)F)N1S(=O)(=O)c1ccc(F)cn1 [[1], (2S,4R,5S)-4-fluoro-1-[(5-fluoro-2-pyridyl)sulfonyl]-5-methyl-N-[[5-(trifluoromethyl)-2-[2-(trifluoromethyl)pyrimidin-5-yl]-4-pyridyl]methyl]pyrrolidine-2-carboxamide]
IC50 (human TRPA1 [3]): 2.69 nM

C[C@H]1[C@H](F)C[C@@H](C(=O)NCc2cc(-c3cnc(C(F)(F)F)nc3)ncc2C(F)(F)F)N1S(=O)(=O)c1cccnc1 [[2], (2S,4R,5S)-4-fluoro-5-methyl-1-(3-pyridylsulfonyl)-N-[[5-(trifluoromethyl)-2-[2-(trifluoromethyl)pyrimidin-5-yl]-4-pyridyl]methyl]pyrrolidine-2-carboxamide]
IC50 (human TRPA1 [3]): 32 nM

C[C@H]1[C@H](F)C[C@@H](C(=O)NCc2cc(-c3cnc(C(F)(F)F)nc3)ncc2C(F)(F)F)N1S(=O)(=O)c1cncc(Cl)c1 [[3], (2S,4R,5S)-1-[(5-chloro-3-pyridyl)sulfonyl]-4-fluoro-5-methyl-N-[[5-(trifluoromethyl)-2-[2-(trifluoromethyl)pyrimidin-5-yl]-4-pyridyl]methyl]pyrrolidine-2-carboxamide]
IC50 (human TRPA1 [3]): 3.09 nM

C[C@H]1[C@H](F)C[C@@H](C(=O)NCc2cc(-c3cnc(C(F)(F)F)nc3)ncc2C(F)(F)F)N1S(=O)(=O)c1cc2c(Cl)nccc2o1 [[4], (2S,4R,5S)-1-(4-chlorofuro[3,2-c]pyridin-2-yl)sulfonyl-4-fluoro-5-methyl-N-[[5-(trifluoromethyl)-2-[2-(trifluoromethyl)pyrimidin-5-yl]-4-pyridyl]methyl]pyrrolidine-2-carboxamide]
IC50 (human TRPA1 [3]): 0.634 nM

C[C@H]1[C@H](F)C[C@@H](C(=O)NCc2cc(-c3cnc(C(F)(F)F)nc3)ncc2C(F)(F)F)N1S(=O)(=O)c1cc2cnccc2o1 [[5], (2S,4R,5S)-4-fluoro-1-furo[3,2-c]pyridin-2-ylsulfonyl-5-methyl-N-[[5-(trifluoromethyl)-2-[2-(trifluoromethyl)pyrimidin-5-yl]-4-pyridyl]methyl]pyrrolidine-2-carboxamide]
IC50 (human TRPA1 [3]): 1.91 nM

C[C@H]1[C@H](F)C[C@@H](C(=O)NCc2cc(-c3cnc(C(F)(F)F)nc3)ncc2C(F)(F)F)N1S(=O)(=O)c1ccc(Cl)cn1 [[6], (2S,4R,5S)-1-[(5-chloro-2-pyridyl)sulfonyl]-4-fluoro-5-methyl-N-[[5-(trifluoromethyl)-2-[2-(trifluoromethyl)pyrimidin-5-yl]-4-pyridyl]methyl]pyrrolidine-2-carboxamide]
IC50 (human TRPA1 [3]): 2.16 nM

C[C@H]1[C@H](F)C[C@@H](C(=O)NCc2cc(-c3cnc(C(F)(F)F)nc3)ncc2C(F)(F)F)N1S(=O)(=O)c1ncccc1F [[7], (2S,4R,5S)-4-fluoro-1-[(3-fluoro-2-pyridyl)sulfonyl]-5-methyl-N-[[5-(trifluoromethyl)-2-[2-(trifluoromethyl)pyrimidin-5-yl]-4-pyridyl]methyl]pyrrolidine-2-carboxamide]
IC50 (human TRPA1 [3]): 633 nM

C[C@H]1[C@H](F)C[C@@H](C(=O)NCc2cc(-c3cnc(C(F)(F)F)nc3)ncc2C(F)(F)F)N1S(=O)(=O)c1ccc(C#N)cn1 [[8], (2S,4R,5S)-1-(5-cyanopyridin-2-ylsulfonyl)-4-fluoro-5-methyl-N-((5-(trifluoromethyl)-2-(2-(trifluoromethyl)pyrimidin-5-yl)pyridin-4-yl)methyl)pyrrolidine-2-carboxamide]
IC50 (human TRPA1 [3]): 73.5 nM

C[C@H]1[C@H](F)C[C@@H](C(=O)NCc2cc(-c3cnc(C(F)(F)F)nc3)ncc2Cl)N1S(=O)(=O)c1ccc(F)cn1 [[9], (2S,4R,5S)—N-((5-chloro-2-(2-(trifluoromethyl)pyrimidin-5-yl)pyridin-4-yl)methyl)-4-fluoro-1-(5-fluoropyridin-2-ylsulfonyl)-5-methylpyrrolidine-2-carboxamide]
IC50 (human TRPA1 [3]): 16.7 nM

C[C@H]1[C@H](F)C[C@@H](C(=O)NCc2cc(-c3cnc(C(F)(F)F)nc3)ccc2C#N)N1S(=O)(=O)c1ccc(F)cn1 [[10], (2S,4R,5S)—N-(2-cyano-5-(2-(trifluoromethyl)pyrimidin-5-yl)benzyl)-4-fluoro-1-(5-fluoropyridin-2-ylsulfonyl)-5-methylpyrrolidine-2-carboxamide]
IC50 (human TRPA1 [3]): 66.9 nM

C[C@H]1[C@H](F)C[C@@H](C(=O)NCc2cc(-c3cnc(C(F)(F)F)nc3)ncc2OC(F)(F)F)N1S(=O)(=O)c1ccc(F)cn1 [[11], (2S,4R,5S)-4-fluoro-1-(5-fluoropyridin-2-ylsulfonyl)-5-methyl-N-((5-(trifluoromethoxy)-2-(2-(trifluoromethyl)pyrimidin-5-yl)pyridin-4-yl)methyl)pyrrolidine-2-carboxamide]
IC50 (human TRPA1 [3]): 6.73 nM

C[C@H]1[C@H](F)C[C@@H](C(=O)NCc2cc(-c3cnc(C(F)(F)F)nc3)ncc2F)N1S(=O)(=O)c1ccc(F)cn1 [[12], (2S,4R,5S)-4-fluoro-N-((5-fluoro-2-(2-(trifluoromethyl)pyrimidin-5-yl)pyridin-4-yl)methyl)-1-(5-fluoropyridin-2-ylsulfonyl)-5-methylpyrrolidine-2-carboxamide]
IC50 (human TRPA1 [3]): 103 nM

C[C@H]1[C@H](F)C[C@@H](C(=O)NCc2cc(-c3cnc(C(F)(F)F)nc3)ncc2C#N)N1S(=O)(=O)c1ccc(F)cn1 [[13], (2S,4R,5S)—N-((5-cyano-2-(2-(trifluoromethyl)pyrimidin-5-yl)pyridin-4-yl)methyl)-4-fluoro-1-(5-fluoropyridin-2-ylsulfonyl)-5-methylpyrrolidine-2-carboxamide]
IC50 (human TRPA1 [3]): 89.8 nM

C[C@H]1[C@H](F)C[C@@H](C(=O)NCc2cc(-c3cnc(C(F)(F)F)nc3)cnc2C(F)F)N1S(=O)(=O)c1ccc(F)cn1 [[14], (2S,4R,5S)—N-((2-(difluoromethyl)-5-(2-(trifluoromethyl)pyrimidin-5-yl)pyridin-3-yl)methyl)-4-fluoro-1-(5-fluoropyridin-2-ylsulfonyl)-5-methylpyrrolidine-2-carboxamide]
IC50 (human TRPA1 [3]): 75.1 nM

C[C@H]1[C@H](F)C[C@@H](C(=O)NCc2cc(-c3cnc(C(F)(F)F)nc3)cnc2C(F)(F)F)N1S(=O)(=O)c1ccc(F)cn1 [[15], (2S,4R,5S)-4-fluoro-1-(5-fluoropyridin-2-ylsulfonyl)-5-methyl-N-((2-(trifluoromethyl)-5-(2-(trifluoromethyl)pyrimidin-5-yl)pyridin-3-yl)methyl)pyrrolidine-2-carboxamide]
IC50 (human TRPA1 [3]): 47.7 nM
